Among the data in patent US9499492B2, “4-(ortho)-fluorophenyl-5-fluoropyrimidin-2-yl amines containing a sulfoximine group” (BAYER PHARMA AKTIENGESELLSCHAFT, priority 2012, dated 2016) are IC50 values, retold here.

One assay has as its target CDK9/CycT1 (Homo sapiens (Human), UniProt P50750). The experiment in a line: CDK9/CycT1 high ATP kinase assay (Method 1b). To be noted: 2 mM ATP. It is filed as biochemical. In a few lines: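 Full-length His-tagged human CDK9/CycT1 (insect cells, ~0.5 μg/ml) pre-incubated 15 min at 22 °C with compound in Tris pH 8.0/MgCl2/DTT buffer; biotinylated peptide substrate, high ATP. After detection reagents, 1 h at 22 °C; TR-FRET 665/620 nm emission ratio (350 nm excitation) measured phosphorylation.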

Another assay deals with CDK2/CycE (Homo sapiens (Human), UniProt P24941). The experiment in a line: CDK2/CycE kinase assay (Method 2). To be noted: 10 μM ATP. It is filed as biochemical.
The target in assay [1] is human carbonic anhydrase-1 (Homo sapiens (Human), UniProt P00915). The experiment in a line: Carbonic anhydrase assay, carbonic anhydrase-1 (Method 4). It is filed as biochemical. To be noted: read-out: Inhibition of Carbonic anhydrase-1 IC50. As for the experimental part: 4. Carbonic Anhydrase Assay
2 μL of the test compounds, dissolved in DMSO (100-fold final concentration), in a concentration range of 0.03-10 μmol/L (final), was pipetted as quadruplicates into the wells of a 96-hole microtiter plate. Wells that contained the solvent without test compounds were used as reference values (1. Wells without carbonic anhydrase for correction of the non-enzymatic hydrolysis of the substrate, and 2. Wells with carbonic anhydrase for determining the activity of the non-inhibited enzyme).
188 μL of assay buffer (10 mmol/L of Tris/HCl, pH 7.4, 80 mmol/L of NaCl), with or without 3 units/well of carbonic anhydrase-1 [=human carbonic anhydrase-1 (Sigma, #C4396)] in order to determine carbonic anhydrase-1 inhibition or 3 units/well of carbonic anhydrase-2 [=human carbonic anhydrase-2 (Sigma, #C6165)] for measuring carbonic anhydrase-2 inhibition, was pipetted into the wells of the microtiter plate.

Assay [2] has as its system HeLa-MaTu-ADR, multidrug-resistant human cervical carcinoma cells. The experiment in a line: Proliferation assay, HeLa-MaTu-ADR (Method 3). It is filed as cell-based. To be noted: 4 days, crystal violet, read-out: Inhibition of HeLa-MaTu-ADR cell proliferation IC50. The procedure:
(§1) After 24 hours, the cells of one plate (zero-point plate) were stained with crystal violet (see below), while the medium of the other plates was replaced by fresh culture medium (200 μl), to which the test substances were added in various concentrations (0 μM, as well as in the range of 0.001-10 μM; the final concentration of the solvent dimethyl sulfoxide was 0.5%). The cells were incubated for 4 days in the presence of test substances. Cell proliferation was determined by staining the cells with crystal violet: the cells were fixed by adding 20 μl/measuring point of an 11% glutaric aldehyde solution for 15 minutes at room temperature. After three washing cycles of the fixed cells with water, the plates were dried at room temperature. The cells were stained by adding 100 μl/measuring point of a 0.1% crystal violet solution (pH 3.0). After three washing cycles of the stained cells with water, the plates were dried at room temperature. The dye was dissolved by adding 100 μl/measuring point of a 10% acetic acid solution. The extinction was determined by photometry at a wavelength of 595 nm. The change of cell number, in percent, was calculated by normalization of the measured values to the extinction values of the zero-point plate (=0%) and the extinction of the untreated (0 μm) cells (=100%).

In assay [3] the test system is B16F10, mouse melanoma cells. The assay can be described thus: Proliferation assay, B16F10 (Method 3). It is filed as cell-based. To be noted: B16F10, 4 days, crystal violet, read-out: Inhibition of B16F10 cell proliferation IC50. The procedure:
as §1

The structures appear in SMILES notation. Read-outs that look alike come from different tables or passages of the source.

Sequence of CDK9/CycT1 (P50750 whole entry): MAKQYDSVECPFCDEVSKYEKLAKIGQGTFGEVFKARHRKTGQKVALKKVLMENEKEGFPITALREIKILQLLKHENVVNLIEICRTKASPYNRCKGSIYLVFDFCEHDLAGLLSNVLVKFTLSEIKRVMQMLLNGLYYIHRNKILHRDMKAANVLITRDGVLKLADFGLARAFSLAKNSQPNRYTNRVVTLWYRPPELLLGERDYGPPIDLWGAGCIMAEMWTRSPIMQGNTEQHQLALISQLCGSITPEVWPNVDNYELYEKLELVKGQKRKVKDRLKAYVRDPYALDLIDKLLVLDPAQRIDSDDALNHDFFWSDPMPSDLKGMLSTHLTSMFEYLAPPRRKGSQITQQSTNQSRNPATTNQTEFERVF
Sequence of CDK9/CycT1 (O60563 whole entry partner): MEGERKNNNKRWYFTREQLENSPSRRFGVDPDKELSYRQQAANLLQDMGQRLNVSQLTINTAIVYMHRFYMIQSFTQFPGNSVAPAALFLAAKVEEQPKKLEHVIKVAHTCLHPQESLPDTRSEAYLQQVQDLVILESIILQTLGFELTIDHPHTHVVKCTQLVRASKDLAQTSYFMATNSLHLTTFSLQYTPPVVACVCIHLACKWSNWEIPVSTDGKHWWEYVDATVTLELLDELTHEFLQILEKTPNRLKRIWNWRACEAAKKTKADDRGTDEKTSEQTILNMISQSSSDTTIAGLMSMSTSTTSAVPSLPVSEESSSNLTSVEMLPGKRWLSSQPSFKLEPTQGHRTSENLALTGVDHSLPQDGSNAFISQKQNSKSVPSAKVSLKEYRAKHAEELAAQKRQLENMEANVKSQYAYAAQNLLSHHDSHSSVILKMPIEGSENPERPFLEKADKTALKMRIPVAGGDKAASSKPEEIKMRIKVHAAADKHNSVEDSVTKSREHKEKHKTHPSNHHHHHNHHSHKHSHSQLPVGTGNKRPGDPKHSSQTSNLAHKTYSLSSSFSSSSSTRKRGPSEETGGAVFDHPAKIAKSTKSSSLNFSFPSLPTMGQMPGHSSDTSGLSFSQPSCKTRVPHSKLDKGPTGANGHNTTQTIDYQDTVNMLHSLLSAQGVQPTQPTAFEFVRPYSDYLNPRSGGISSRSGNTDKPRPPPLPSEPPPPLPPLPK
Sequence of human carbonic anhydrase-1 (P00915 whole entry): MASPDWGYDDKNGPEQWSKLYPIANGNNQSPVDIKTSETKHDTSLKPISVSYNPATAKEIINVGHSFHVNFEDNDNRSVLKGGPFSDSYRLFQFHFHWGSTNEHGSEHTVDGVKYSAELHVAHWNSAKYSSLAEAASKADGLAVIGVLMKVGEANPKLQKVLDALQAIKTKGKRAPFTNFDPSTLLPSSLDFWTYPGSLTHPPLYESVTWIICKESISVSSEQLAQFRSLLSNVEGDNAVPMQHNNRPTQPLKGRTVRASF

With `CS(=N)(=O)Cc1cc(Cl)cc(Nc2ncc(F)c(-c3ccc(F)cc3F)n2)c1` (racemic) [Example 15, (rac)-N-{3-chloro-5-[(S-methylsulfonimidoyl)methyl]phenyl}-4-(2,4-difluorophenyl)-5-fluoropyrimidin-2-amine], the IC50 at CDK9/CycT1 was 892 nM; against CDK2/CycE, 630 nM; in assay [1] it was > 10 µM.
As to `CS(=O)(Cc1cc(Nc2ncc(F)c(-c3ccc(F)cc3F)n2)cc(S(F)(F)(F)(F)F)c1)=NC(N)=O` (single isomer, unassigned) [Example 33, 1-{[3-{[4-(2,4-Difluorophenyl)-5-fluoropyrimidin-2-yl]amino}-5-(pentafluoro-λ^6-sulfanyl)benzyl](methyl)oxido-λ^6-sulfanylidene}urea], the IC50 in assay [2] was determined as 495 nM; at CDK9/CycT1, 99 nM; in assay [3] (Mus musculus, B16-F10, 96 h) it was 611 nM; against CDK2/CycE, 1600 nM.
Consider `CS(=O)(Cc1cc(Nc2ncc(F)c(-c3ccc(F)cc3F)n2)cc(C(F)(F)F)c1)=NC#N` (single isomer, unassigned) [Example 2, {[3-{[4-(2,4-Difluorophenyl)-5-fluoropyrimidin-2-yl]amino}-5-(trifluoromethyl)benzyl](methyl)oxido-λ^6-sulfanylidene}cyanamide], for which the IC50 in assay [2] (Homo sapiens, 96 h) stood at 320 nM; at CDK9/CycT1 it was 29 nM; in assay [3] (Mus musculus, B16-F10, 96 h), 390 nM; on CDK2/CycE, 1200 nM.
On the same counts, the results for `CS(=O)(Cc1cc(Nc2ncc(F)c(-c3ccc(F)cc3F)n2)cc(S(F)(F)(F)(F)F)c1)=NC#N` (racemic) [Example 28, (rac)-{[3-{[4-(2,4-Difluorophenyl)-5-fluoropyrimidin-2-yl]amino}-5-(pentafluoro-λ^6-sulfanyl)benzyl](methyl)oxido-λ^6-sulfanylidene}cyanamide] are 120 nM, 5 nM, 363 nM and 1300 nM.
In the case of `CS(=N)(=O)Cc1cc(Nc2ncc(F)c(-c3ccc(F)cc3F)n2)cc(C(F)(F)F)c1` (racemic) [Example 4, (rac)-4-(2,4-Difluorophenyl)-5-fluoro-N-{3-[(S-methylsulfonimidoyl)methyl]-5-(trifluoromethyl)phenyl}pyrimidin-2-amine], the figures for the IC50 (against CDK9/CycT1; against CDK2/CycE; in assay [1]) were 251 nM, 880 nM and > 10 µM, respectively.
Take `CS(=O)(Cc1cc(Nc2ncc(F)c(-c3ccc(F)cc3F)n2)cc(C(F)(F)F)c1)=NC#N` (single isomer, unassigned) [Example 3, {[3-{[4-(2,4-Difluorophenyl)-5-fluoropyrimidin-2-yl]amino}-5-(trifluoromethyl)benzyl](methyl)oxido-λ^6-sulfanylidene}cyanamide]: the IC50 in assay [2] stood at 200 nM; on CDK9/CycT1, 32 nM; in assay [3], 340 nM; on CDK2/CycE, 1300 nM.
For the compound `CS(=O)(Cc1cc(Nc2ncc(F)c(-c3ccc(F)cc3F)n2)cc(C(F)(F)F)c1)=NC(N)=O` (single isomer, unassigned) [Example 23, 1-{[3-{[4-(2,4-Difluorophenyl)-5-fluoropyrimidin-2-yl]amino}-5-(trifluoromethyl)benzyl](methyl)oxido-λ^6-sulfanylidene}urea], the IC50 is 200 nM in assay [2] (Homo sapiens, 96 h); 16 nM at CDK9/CycT1; 380 nM in assay [3] (Mus musculus, B16-F10, 96 h); 370 nM against CDK2/CycE.
Consider `CS(=O)(Cc1cc(Nc2ncc(F)c(-c3ccc(F)cc3F)n2)cc(C(F)(F)F)c1)=NC#N` (racemic) [Example 1, (rac)-{[3-{[4-(2,4-Difluorophenyl)-5-fluoropyrimidin-2-yl]amino}-5-(trifluoromethyl)benzyl](methyl)oxido-λ^6-sulfanylidene}cyanamide], for which the IC50 is 39 nM on CDK9/CycT1, 1400 nM at CDK2/CycE and > 10 µM in assay [1].
The corresponding values for `CS(=O)(Cc1cc(Nc2ncc(F)c(-c3ccc(F)cc3F)n2)cc(C(F)(F)F)c1)=NC(N)=O` (racemic) [Example 7, (rac)-1-{[3-{[4-(2,4-Difluorophenyl)-5-fluoropyrimidin-2-yl]amino}-5-(trifluoromethyl)benzyl](methyl)oxido-λ^6-sulfanylidene}urea] are 105 nM, 1100 nM and > 10 µM.
For `CS(=N)(=O)Cc1cc(Nc2ncc(F)c(-c3ccc(F)cc3F)n2)cc(S(F)(F)(F)(F)F)c1` (single isomer, unassigned) [Example 32, 4-(2,4-Difluorophenyl)-5-fluoro-N-{3-[(S-methylsulfonimidoyl)methyl]-5-(pentafluoro-λ^6-sulfanyl)phenyl}pyrimidin-2-amine], the IC50 was 304 nM in assay [2] (Homo sapiens, 96 h); 6 nM against CDK9/CycT1; 406 nM in assay [3] (Mus musculus, B16-F10, 96 h); 1600 nM on CDK2/CycE.
